{"source": "patent US20240207265A1", "about": "“TREATMENT OF CNS DISEASES WITH sGC STIMULATORS” (Tisento Therapeutics Inc., priority 2021, published 2024)", "key": {"[1]": {"experiment": "Non-human primate CSF pharmacokinetics (Study B), cisterna magna versus lumbar sampling", "assay_type": "in vivo, cynomolgus monkeys", "procedure": "The objective of this study was to investigate the pharmacokinetics of Compound I-14 after administration of a single […] bolus or oral gavage dose to cynomolgus monkeys on Day 1 and to evaluate differences in pharmacokinetic values when comparing CSF collected at the cisterna magna (as in Example 10A) versus lumbar locations.\nSingle doses of Compound I-14 were administered intravenously as a bolus injection of a solution at 0.15 mg/kg and orally by gavage as a suspension at 0.5 mg/kg to a group of four female cynomolgus monkeys in a crossover design. Plasma samples were collected at 0.25 (15 min), 0.5 (30 min), 1, 2, 3, 6, 8, 12, 24, 32, and 48 h following the IV and PO doses. CSF samples were collected at 3 and 24 h for all animals from the cisterna magna in groups 1 and 2 and the lumbar from groups 3 and 4. Sample extracts were prepared by protein precipitation and Compound I-14 concentrations were measured using LC-MS/MS. Pharmacokinetic parameters were calculated."}, "[2]": {"system": "sleep-stage specific pharmaco-EEG", "experiment": "Sleep-wake pharmaco-EEG in telemeter-implanted rats", "assay_type": "in vivo, rat", "excerpt": "Young adult male Sprague-Dawley (SD) rats (˜275-325 grams on arrival) from Envigo (Indianapolis, IN) were used in the study. Upon receipt, rats were assigned unique identification numbers and housed with 3 rats per cage in polycarbonate cages with micro-isolator filter tops. All rats were examined and weighed prior to initiation of the study to assure adequate health and suitability. During the course of the study, 12/12 light/dark cycles were maintained. The room temperature was maintained between […] and 23° C. with a relative humidity maintained around 50%. Chow and water were provided ad libitum for the duration of the study. Following surgery, rats were single housed. After a period of recovery (7-10 days), animals were transferred to an EEG recording room and placed over a DSI receiver for recordings.\n• a. Vehicle A • i. Route: PO • ii. Volume: 10 ml/kg • iii. Formulation: Water • b. Compound I-14 at 3 mg/kg • i. Route: PO • ii. Volume: 10 ml/kg • iii. Formulation: 3 mg/kg in water • c. Compound I-14 at 10 mg/kg • i. Route: PO • ii. Volume: 10 ml/kg • iii. Formulation: 10 mg/kg in water • d. Compound I-14 at 30 mg/kg • i. Route: PO • ii. Volume: 10 ml/kg • iii. Formulation: 30 mg/kg in water\nBriefly, animals were implanted with DSI Telemetry devices (F50-EET) in a 3 channel (lead pairs) configuration. Note the positive and negative lead placements for each location. Each of the EEG channels on the DSI transmitter functions as a differential input whereby the differential input measures the difference between the positive and negative leads. Frontal/Parietal (right): (+) 2 mm Anterior, 2 mm Lateral; (−) 4 mm Posterior, 2 mm Lateral; Frontal/Frontal (bihemispheric): (+) 2 mm Anterior, 2 mm Lateral (right); (−) 2 mm Anterior, 2 mm Lateral (left); and neck EMG.\nThis study followed a Monday and Thursday dosing/recording schedule, where Baseline EEG was recorded 2 hours and then rats received first dose of Compound I-14 at 0.3, 3 or 10 mg/kg or Vehicle A (all orally) between 7:50-8:00 AM and a second dose of the same after about 12 hours, and EEG continued 12 hours afterwards. • EEG Recordings began at 6 AM (at time lights turn on) • Dosing occurred at 7:50 am AM (1 hour 50 minutes after lights ON) • 2nd dosing (same compound) occurred at 7:50 PM (1 hour and 50 minutes after lights OFF) • EEG Recordings continued until 7:50 AM the following day (24 hours after 1st dose and 12 hours after 2nd dose).\nAnimals were tested in a cross-over design with at least 72-hour washout period between doses. On each testing day, animals received compound or vehicle orally just under 2 hours (7:50 AM) after lights on (6:00 AM). Data were recorded from 2 hours prior to dosing and recorded continuously for 24 hours post dose.\nRaw EEG recordings were manually scored using Neuroscore software (Data Sciences International) to identify sleep stages: Active Wake, Quiet Wake, NREM and REM. Using NeuroScore (DSI), artifacts were removed offline from the data and sleep stages assigned manually for every 10 s epoch using EEG, EMG and Locomotor activity (LMA) by conventional methods as previously described (Ivarsson et al., 2005; Parmentier-Batteur et al., 2012; Leiser et al., 2014, 2015) using the fronto-parietal EEG, LMA and EMG: active wake (less regular, low-amplitude EEG with high EMG and LMA activity); quiet wake (less regular, low-amplitude EEG, with low EMG and no LMA activity); NREM (consisting of high-amplitude irregular waves with predominant delta (1-4 Hz), low EMG and no LMA); REM sleep (stable, low-amplitude waves dominated by theta (4-8 Hz) with near absent EMG and no LMA).\nThe sleep stage data were exported from a Neuroscore report template of sleep state time per each 15 min (2 hours pre-dose to 4 hours post-dose). The onset of the first sleep and first REM were also reported directly from a Neuroscore report template. […]"}}, "data": [{"compound": "Cc1cc(F)c(Cc2nc(-c3ncc(F)c(O)n3)cn3ccnc23)cc1F", "note": "[Compound I-14, 5-fluoro-2-(8-(2,5-difluoro-4-methylbenzyl)imidazo[1,2-a]pyrazin-6-yl)pyrimidin-4-ol]", "values": [{"measurement": "geomean ratio of CSF concentration to unbound concentration in plasma", "setting": "[1]; 3 hours, IV dosing, cisterna magna sampling", "value": "C (2<Kp,uu≤3=C)"}, {"measurement": "geomean ratio of CSF concentration to unbound concentration in plasma", "setting": "[1]; 3 hours, IV dosing, lumbar sampling", "value": "C (2<Kp,uu≤3=C)"}, {"measurement": "geomean ratio of CSF concentration to unbound concentration in plasma", "setting": "[1]; 3 hours, oral dosing, cisterna magna sampling", "value": "C (2<Kp,uu≤3=C)"}, {"measurement": "geomean ratio of CSF concentration to unbound concentration in plasma", "setting": "[1]; 3 hours, oral dosing, lumbar sampling", "value": "C (2<Kp,uu≤3=C)"}, {"measurement": "geomean ratio of CSF concentration to unbound concentration in plasma", "setting": "[1]; 24 hours, IV dosing, cisterna magna sampling", "value": "B (1<Kp,uu≤2=B)"}, {"measurement": "geomean ratio of CSF concentration to unbound concentration in plasma", "setting": "[1]; 24 hours, IV dosing, lumbar sampling", "value": "B (1<Kp,uu≤2=B)"}, {"measurement": "geomean ratio of CSF concentration to unbound concentration in plasma", "setting": "[1]; 24 hours, oral dosing, cisterna magna sampling", "value": "C (2<Kp,uu≤3=C)"}, {"measurement": "geomean ratio of CSF concentration to unbound concentration in plasma", "setting": "[1]; 24 hours, oral dosing, lumbar sampling", "value": "C (2<Kp,uu≤3=C)"}, {"measurement": "EEG spectral power in QW", "setting": "[2]; 3 mg/kg PO", "value": "increased low gamma 0-180 minutes post dose"}, {"measurement": "EEG spectral power in QW", "setting": "[2]; 30 mg/kg PO", "value": "increased low gamma 0-240 and high gamma 0-180 minutes post dose"}, {"measurement": "EEG spectral power in NREM", "setting": "[2]; 30 mg/kg PO, ˜0-300 minutes post dose", "value": "decreased delta, theta, alpha and increased low and high gamma"}, {"measurement": "REM and NREM in hypnograms vs vehicle (A) group", "setting": "[2]; high dose (30 mg/kg) PO", "value": "notable decrease in REM and NREM"}, {"measurement": "onset of NREM, REM and REM latency", "setting": "[2]; high dose (30 mg/kg) PO", "value": "delayed"}, {"measurement": "Quiet Wake in hypnograms", "setting": "[2]; highest dose (30 mg/kg) PO", "value": "increase in Quiet Wake"}]}]}
